According to PMC10004634 (PLOS ONE, 2023):
Read-outs that look alike come from different tables or passages of the source.

How the values were obtained:
Experiment in all cases: biochemical
Set-up in all cases: KINOMEscan scanMAX competition binding, DNA-tagged kinases, qPCR read-out, percent control at 300 nM
CDKL3 = CDKL3 (Homo sapiens, UniProt Q8IVW4)
PKN1 = PKN1 (Homo sapiens, UniProt Q16512)
LTK = LTK (Homo sapiens, UniProt P29376)
TXK = target: T1, TXK (Homo sapiens, UniProt P42681)
T1 sequence (P42681 1-527): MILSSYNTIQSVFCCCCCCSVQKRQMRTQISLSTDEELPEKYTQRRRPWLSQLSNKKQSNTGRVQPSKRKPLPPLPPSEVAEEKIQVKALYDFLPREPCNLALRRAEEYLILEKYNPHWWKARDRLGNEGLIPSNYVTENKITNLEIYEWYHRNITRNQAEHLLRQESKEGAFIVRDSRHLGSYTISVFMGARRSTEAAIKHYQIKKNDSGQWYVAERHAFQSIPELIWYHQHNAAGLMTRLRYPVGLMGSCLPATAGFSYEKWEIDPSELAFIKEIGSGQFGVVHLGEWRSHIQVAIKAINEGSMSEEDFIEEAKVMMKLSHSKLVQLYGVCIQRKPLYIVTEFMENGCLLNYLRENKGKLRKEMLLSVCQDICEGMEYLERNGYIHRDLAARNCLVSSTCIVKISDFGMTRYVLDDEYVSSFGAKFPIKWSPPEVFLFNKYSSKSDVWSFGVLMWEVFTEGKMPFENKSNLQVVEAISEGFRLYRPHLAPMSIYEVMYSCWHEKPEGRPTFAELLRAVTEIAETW

BLK = BLK (Homo sapiens, UniProt P51451)
CDK11 = target: T2, CDK11 (Homo sapiens, UniProt Q9BWU1)
T2 construct: gene CDK19

AAK1 = AAK1 (Homo sapiens, UniProt Q2M2I8)
GAK = target: T3, GAK (Homo sapiens, UniProt O14976)
T3 sequence (O14976 1-1311): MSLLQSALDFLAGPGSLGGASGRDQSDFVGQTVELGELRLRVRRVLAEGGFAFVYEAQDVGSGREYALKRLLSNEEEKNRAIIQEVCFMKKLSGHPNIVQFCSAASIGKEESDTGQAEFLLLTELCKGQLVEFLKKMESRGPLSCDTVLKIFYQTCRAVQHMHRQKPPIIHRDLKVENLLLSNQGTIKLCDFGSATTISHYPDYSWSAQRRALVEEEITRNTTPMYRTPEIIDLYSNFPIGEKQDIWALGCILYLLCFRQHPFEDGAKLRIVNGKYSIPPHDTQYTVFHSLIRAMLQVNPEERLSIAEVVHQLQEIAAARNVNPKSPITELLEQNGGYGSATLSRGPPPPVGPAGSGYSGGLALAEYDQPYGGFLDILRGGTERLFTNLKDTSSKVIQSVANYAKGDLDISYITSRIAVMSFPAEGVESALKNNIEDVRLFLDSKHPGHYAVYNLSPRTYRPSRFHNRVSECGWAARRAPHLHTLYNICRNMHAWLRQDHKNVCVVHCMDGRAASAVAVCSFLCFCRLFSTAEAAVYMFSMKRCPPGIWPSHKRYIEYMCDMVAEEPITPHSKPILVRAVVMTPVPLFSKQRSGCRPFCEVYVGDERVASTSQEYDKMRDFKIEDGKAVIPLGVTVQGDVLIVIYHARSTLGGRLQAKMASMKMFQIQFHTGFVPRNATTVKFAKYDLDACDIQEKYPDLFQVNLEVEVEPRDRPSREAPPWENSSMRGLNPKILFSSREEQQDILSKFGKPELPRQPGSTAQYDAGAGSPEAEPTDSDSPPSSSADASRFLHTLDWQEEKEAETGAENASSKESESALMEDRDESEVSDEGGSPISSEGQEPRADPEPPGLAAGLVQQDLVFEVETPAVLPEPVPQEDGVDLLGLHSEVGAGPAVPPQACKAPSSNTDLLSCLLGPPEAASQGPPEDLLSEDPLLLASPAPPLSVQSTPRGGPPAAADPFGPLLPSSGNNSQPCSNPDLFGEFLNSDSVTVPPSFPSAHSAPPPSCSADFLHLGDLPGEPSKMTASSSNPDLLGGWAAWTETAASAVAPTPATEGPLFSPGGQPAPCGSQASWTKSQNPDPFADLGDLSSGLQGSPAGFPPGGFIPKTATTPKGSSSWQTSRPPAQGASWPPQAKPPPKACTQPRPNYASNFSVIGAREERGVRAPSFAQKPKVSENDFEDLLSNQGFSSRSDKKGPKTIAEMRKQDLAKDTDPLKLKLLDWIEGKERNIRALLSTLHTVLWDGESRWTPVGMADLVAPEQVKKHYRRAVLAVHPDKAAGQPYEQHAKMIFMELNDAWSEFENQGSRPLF

CSK = CSK (Homo sapiens, UniProt P41240)
CAMK4 = CAMK4 (Homo sapiens, UniProt Q16566)
[1] = read-out: Percent control / Acalabrutinib
[2] = read-out: Percent control / Ibrutinib
[3] = read-out: Percent control / Tirabrutinib
[4] = read-out: Percent control / Zanubrutinib

Chain of BLK (P51451 whole entry): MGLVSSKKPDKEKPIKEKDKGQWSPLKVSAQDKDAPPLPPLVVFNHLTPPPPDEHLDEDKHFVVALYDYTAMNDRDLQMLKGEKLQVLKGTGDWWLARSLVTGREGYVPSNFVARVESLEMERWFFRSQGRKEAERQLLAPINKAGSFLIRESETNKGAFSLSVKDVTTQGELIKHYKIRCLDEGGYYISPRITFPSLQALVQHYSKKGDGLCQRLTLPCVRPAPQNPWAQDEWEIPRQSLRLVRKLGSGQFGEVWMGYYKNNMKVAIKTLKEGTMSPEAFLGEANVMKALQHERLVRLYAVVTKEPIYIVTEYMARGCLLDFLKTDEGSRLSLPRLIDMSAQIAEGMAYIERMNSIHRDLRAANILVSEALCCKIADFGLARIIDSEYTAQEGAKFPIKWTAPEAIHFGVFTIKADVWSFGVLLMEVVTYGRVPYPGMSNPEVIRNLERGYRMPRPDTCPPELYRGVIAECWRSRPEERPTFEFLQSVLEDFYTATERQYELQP
Chain of PKN1 (Q16512 whole entry): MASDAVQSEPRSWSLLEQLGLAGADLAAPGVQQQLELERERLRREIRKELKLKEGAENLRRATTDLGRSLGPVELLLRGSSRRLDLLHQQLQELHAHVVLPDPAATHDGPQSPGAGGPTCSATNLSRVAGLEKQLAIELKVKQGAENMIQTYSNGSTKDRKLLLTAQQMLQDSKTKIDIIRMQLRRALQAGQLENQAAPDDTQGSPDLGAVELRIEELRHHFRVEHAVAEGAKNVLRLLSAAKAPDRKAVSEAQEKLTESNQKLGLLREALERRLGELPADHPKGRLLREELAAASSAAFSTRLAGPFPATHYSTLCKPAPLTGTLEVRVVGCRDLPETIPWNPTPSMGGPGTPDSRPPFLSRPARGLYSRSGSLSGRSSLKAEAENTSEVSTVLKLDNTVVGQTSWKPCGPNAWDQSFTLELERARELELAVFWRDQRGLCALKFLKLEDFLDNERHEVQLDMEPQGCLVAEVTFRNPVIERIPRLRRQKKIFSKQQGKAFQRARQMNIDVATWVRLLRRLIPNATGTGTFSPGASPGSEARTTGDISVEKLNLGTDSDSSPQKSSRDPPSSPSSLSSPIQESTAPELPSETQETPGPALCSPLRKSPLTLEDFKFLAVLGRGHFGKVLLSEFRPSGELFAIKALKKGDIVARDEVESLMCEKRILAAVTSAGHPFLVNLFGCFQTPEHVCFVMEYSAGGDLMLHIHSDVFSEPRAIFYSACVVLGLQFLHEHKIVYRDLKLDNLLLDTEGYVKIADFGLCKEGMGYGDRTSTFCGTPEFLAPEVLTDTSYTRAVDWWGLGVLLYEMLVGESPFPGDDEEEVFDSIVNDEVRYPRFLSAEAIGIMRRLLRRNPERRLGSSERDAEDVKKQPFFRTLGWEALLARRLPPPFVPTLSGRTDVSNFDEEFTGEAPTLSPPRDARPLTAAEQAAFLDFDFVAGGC
Chain of CDKL3 (Q8IVW4 whole entry): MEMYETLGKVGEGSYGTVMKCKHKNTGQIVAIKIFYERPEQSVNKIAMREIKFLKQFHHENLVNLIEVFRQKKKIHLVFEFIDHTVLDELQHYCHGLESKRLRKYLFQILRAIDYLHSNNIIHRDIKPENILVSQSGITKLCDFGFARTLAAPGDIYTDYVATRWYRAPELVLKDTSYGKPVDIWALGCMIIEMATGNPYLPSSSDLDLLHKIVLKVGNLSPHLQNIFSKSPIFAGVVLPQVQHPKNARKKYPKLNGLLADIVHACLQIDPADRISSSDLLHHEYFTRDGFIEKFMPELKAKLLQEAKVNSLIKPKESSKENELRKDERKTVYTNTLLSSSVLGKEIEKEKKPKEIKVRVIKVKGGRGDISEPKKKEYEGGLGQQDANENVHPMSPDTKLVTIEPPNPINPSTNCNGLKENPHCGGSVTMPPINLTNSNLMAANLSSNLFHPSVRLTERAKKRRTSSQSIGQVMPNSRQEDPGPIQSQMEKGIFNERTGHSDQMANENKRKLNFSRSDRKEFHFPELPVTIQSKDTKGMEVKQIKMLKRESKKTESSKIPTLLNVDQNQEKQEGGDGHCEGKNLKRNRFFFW
Chain of AAK1 (Q2M2I8 whole entry): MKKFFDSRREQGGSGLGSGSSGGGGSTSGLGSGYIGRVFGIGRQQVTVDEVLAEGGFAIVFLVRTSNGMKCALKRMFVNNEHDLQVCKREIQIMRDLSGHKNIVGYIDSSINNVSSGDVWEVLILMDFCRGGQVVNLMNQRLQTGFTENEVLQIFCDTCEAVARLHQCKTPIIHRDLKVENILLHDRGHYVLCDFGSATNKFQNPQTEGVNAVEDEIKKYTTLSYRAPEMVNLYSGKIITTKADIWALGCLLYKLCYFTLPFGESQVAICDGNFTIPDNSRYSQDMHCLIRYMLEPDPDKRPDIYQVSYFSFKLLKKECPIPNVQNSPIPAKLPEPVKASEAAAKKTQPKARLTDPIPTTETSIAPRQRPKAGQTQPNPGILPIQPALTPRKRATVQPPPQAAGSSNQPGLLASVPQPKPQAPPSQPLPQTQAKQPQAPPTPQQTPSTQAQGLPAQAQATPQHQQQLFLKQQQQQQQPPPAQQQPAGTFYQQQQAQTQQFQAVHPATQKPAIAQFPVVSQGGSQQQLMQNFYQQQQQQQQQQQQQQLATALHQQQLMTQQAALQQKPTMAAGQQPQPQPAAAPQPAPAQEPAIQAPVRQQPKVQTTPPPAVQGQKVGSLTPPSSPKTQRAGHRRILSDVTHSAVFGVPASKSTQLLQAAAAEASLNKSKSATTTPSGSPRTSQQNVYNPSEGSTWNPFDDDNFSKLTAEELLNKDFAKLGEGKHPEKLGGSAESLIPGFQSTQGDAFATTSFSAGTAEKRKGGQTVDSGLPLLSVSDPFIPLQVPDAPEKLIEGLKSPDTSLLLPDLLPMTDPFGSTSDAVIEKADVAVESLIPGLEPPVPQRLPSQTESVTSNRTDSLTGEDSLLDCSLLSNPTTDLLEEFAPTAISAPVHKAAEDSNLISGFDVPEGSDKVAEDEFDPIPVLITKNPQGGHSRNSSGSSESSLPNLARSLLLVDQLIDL
Chain of CSK (P41240 whole entry): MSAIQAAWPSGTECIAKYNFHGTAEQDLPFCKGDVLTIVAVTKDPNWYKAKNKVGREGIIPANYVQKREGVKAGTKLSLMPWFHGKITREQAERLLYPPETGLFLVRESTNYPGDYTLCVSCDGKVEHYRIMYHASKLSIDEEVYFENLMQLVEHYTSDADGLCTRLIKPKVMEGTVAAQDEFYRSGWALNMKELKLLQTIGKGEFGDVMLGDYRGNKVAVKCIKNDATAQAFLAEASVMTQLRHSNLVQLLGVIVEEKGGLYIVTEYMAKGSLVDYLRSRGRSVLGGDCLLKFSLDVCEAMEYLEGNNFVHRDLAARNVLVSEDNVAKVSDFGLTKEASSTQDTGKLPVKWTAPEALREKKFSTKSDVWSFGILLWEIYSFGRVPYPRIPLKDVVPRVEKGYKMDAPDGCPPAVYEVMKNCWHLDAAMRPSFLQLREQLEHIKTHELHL
Chain of CAMK4 (Q16566 whole entry, looked up): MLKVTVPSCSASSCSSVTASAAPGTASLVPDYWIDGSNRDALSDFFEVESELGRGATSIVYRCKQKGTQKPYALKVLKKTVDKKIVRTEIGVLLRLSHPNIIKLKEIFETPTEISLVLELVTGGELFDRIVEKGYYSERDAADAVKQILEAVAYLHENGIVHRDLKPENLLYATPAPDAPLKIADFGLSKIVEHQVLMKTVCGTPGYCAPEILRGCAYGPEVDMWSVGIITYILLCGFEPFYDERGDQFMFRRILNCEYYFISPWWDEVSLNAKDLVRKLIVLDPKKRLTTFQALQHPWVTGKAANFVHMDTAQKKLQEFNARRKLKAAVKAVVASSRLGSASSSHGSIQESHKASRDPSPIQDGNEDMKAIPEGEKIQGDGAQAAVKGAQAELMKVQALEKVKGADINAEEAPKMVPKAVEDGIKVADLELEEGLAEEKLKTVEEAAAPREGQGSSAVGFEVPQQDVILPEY
Chain of LTK (P29376 whole entry): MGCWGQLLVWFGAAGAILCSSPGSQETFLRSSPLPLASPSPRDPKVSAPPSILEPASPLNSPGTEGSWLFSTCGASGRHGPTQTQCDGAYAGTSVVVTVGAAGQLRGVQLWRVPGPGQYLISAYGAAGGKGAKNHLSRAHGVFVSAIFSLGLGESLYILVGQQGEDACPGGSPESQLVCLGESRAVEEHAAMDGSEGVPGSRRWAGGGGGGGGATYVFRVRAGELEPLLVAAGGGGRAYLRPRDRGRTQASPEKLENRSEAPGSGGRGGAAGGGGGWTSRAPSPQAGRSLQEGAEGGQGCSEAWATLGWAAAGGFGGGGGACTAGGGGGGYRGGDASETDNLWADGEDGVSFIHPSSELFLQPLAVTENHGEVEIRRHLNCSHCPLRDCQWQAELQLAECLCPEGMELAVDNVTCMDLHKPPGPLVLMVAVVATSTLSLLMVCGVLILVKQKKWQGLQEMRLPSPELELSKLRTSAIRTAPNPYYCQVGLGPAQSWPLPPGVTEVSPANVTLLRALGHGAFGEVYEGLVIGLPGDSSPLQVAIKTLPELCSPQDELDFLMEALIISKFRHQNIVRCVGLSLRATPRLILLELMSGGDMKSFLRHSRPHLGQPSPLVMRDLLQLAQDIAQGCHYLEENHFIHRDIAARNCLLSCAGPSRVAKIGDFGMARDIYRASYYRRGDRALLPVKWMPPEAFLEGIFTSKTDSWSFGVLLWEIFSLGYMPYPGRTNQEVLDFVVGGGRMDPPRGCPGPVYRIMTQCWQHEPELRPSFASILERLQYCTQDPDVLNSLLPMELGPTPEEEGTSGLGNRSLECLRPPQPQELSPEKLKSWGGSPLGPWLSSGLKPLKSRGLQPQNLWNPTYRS

CC#CC(=O)N1CCC[C@H]1c1nc(-c2ccc(C(=O)Nc3ccccn3)cc2)c2c(N)nccn12 [Acalabrutinib]
remaining binding at 0.3 µM (CDKL3; [1]): 78%
remaining binding at 0.3 µM (PKN1; [1]): 81%
remaining binding at 0.3 µM (LTK; [1]): 100%
remaining binding at 0.3 µM (TXK; [1]): 43%
remaining binding at 0.3 µM (BLK; [1]): 80%
remaining binding at 0.3 µM (CDK11; [1]): 74%
remaining binding at 0.3 µM (AAK1; [1]): 94%
remaining binding at 0.3 µM (GAK; [1]): 92%
remaining binding at 0.3 µM (CSK; [1]): 85%

C=CC(=O)N1CCC[C@@H](n2nc(-c3ccc(Oc4ccccc4)cc3)c3c(N)ncnc32)C1 [Ibrutinib]
remaining binding at 0.3 µM (CDKL3; [2]): 98%
remaining binding at 0.3 µM (LTK; [2]): 78%
remaining binding at 0.3 µM (TXK; [2]): 0.4%
remaining binding at 0.3 µM (BLK; [2]): 0.5%
remaining binding at 0.3 µM (CDK11; [2]): 81%
remaining binding at 0.3 µM (CAMK4; [2]): 96%
remaining binding at 0.3 µM (CSK; [2]): 1.4%

CC#CC(=O)N1CC[C@@H](n2c(=O)n(-c3ccc(Oc4ccccc4)cc3)c3c(N)ncnc32)C1 [Tirabrutinib]
remaining binding at 0.3 µM (PKN1; [3]): 99%
remaining binding at 0.3 µM (LTK; [3]): 100%
remaining binding at 0.3 µM (TXK; [3]): 38%
remaining binding at 0.3 µM (BLK; [3]): 39%
remaining binding at 0.3 µM (CDK11; [3]): 93%
remaining binding at 0.3 µM (CAMK4; [3]): 82%
remaining binding at 0.3 µM (AAK1; [3]): 57%
remaining binding at 0.3 µM (GAK; [3]): 95%
remaining binding at 0.3 µM (CSK; [3]): 47%

C=CC(=O)N1CCC([C@@H]2CCNc3c(C(N)=O)c(-c4ccc(Oc5ccccc5)cc4)nn32)CC1 [Zanubrutinib]
remaining binding at 0.3 µM (CDKL3; [4]): 92%
remaining binding at 0.3 µM (PKN1; [4]): 100%
remaining binding at 0.3 µM (LTK; [4]): 92%
remaining binding at 0.3 µM (TXK; [4]): 14%
remaining binding at 0.3 µM (CDK11; [4]): 83%
remaining binding at 0.3 µM (CAMK4; [4]): 91%
remaining binding at 0.3 µM (AAK1; [4]): 96%
remaining binding at 0.3 µM (GAK; [4]): 87%
